Results as given in patent EP3653215A1, “THERANOSTIC INHIBITORS AND ACTIVITY-BASED PROBES FOR THE KLK7 PROTEASE” (University of Patras, priority 2018, dated 2020).
“Also recorded” adds a separate entry of the source. Where two headings read alike, the source gives them in different places.

Assays:
KLK7 [1] = target: T1, KLK7 (Homo sapiens, UniProt P49862); test: gel zymography (casein); type: biochemical
KLK13 = target: T2, KLK13 (Homo sapiens, UniProt Q9UKR3); test: gel zymography, specificity; type: biochemical; settings: 2 hours at room temperature
T2 sequence (Q9UKR3 17-277): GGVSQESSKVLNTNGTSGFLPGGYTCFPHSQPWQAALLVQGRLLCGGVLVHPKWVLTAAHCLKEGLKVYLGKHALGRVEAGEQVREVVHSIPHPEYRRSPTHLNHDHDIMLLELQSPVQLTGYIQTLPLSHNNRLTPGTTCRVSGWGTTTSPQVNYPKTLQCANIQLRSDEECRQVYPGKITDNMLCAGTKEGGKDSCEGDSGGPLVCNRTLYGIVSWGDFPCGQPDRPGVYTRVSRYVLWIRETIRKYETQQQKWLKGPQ
Protocol: (§1) For gel zymography, the compounds were reacted with the enzymes at room temperature for 2 hours, then mixed with zymogram loading buffer without mercaptoethanol, incubated at 37°C for 15 min and resolved on 12% SDS-PAGE containing 0.1% casein or gelatin substrates. Gels were washed twice with 50 mM Tris-HCI pH 7.5, 5 mM CaCl2, 2.5% Triton X-100 for 15 min, then 15 min with 50 mM Tris-HCI, pH 7.5, 5 mM CaCl2, 0.1% Triton X-100, and finally incubated in the latter buffer for 24 hours and stained with Coomassie G-250. Proteolytic bands appear white against a blue background.

KLK6 [2] = target: T3, KLK6 (Homo sapiens, UniProt Q92876); test: gel zymography, specificity; type: biochemical; settings: 2 hours at room temperature
Protocol: as §1

elastase (ELA) = test: gel zymography, specificity; type: biochemical; settings: 2 hours at room temperature
Protocol: as §1

trypsin [3] = test: gel zymography, specificity; type: biochemical; settings: 2 hours at room temperature
Protocol: as §1

KLK6 [4] = target: T3, KLK6; test: enzyme kinetic study, cleavage of fluorescent substrate Z-Phe-Arg-AMC; type: biochemical
Protocol: (§2) The enzyme kinetic study testing the ability of Boc-FFP to inhibit trypsin or KLK6 was performed with cleavage of fluorescent substrate Z-Phe-Arg-AMC. The enzymes were used at 12 nM and the substrate at 50 µM. Boc-FFP was used at 1.2 µM (100:1 molar ration inhibitor: enzyme). Aprotinin was used a positive control at 500 nM final concentration. Fluorescence was measured (λexc=380 nm, λem=440 nm) for 3 min and the results were expressed as ΔF/Δt.

trypsin [5] = test: as above; type: biochemical
Protocol: as §2

KLK7 [6] = target: T1, KLK7; test: KLK7 inhibition study for IC50 determination, BODIPY-FL casein substrate; type: biochemical; settings: KLK7 6 nM, inhibitor 50 nM to 10 µM, 16 hours at room temperature, BODIPY-FL casein 30 µg/ml
Protocol: For IC50 determination, KLK7 inhibition study was carried out in assay buffer (100 mM Tris-HCI, pH 7.8, 100 mM NaCl, 10 mM CaCl2, 0.005% Triton X-100). KLK7 (6 nM) was incubated with the inhibitor (50 nM to 10 µM) for 16 hours at room temperature in the assay buffer. Then, the BODIPY-FL casein substrate (Molecular Probes) was added at 30 µg/ml and fluorescence was measured (λexc=485 nm, λem=530 nm). After 3 hours the fluorescence was measured again. Data were inserted into the online available program Very Simple IC50 Tool (http://www.ic50.tk/) for fitting and calculation of the IC50.

[7] = test system: skin of wildtype (wt) or Klk5^-/- mice; test: erythema/eschar and oedema scoring after application on the skin; type: in vivo; design: key to Erythema and Eschar Score after (hrs) 4 / Erythema and Eschar Score after (hrs) 24 / Erythema and Eschar Score after (hrs) 48 / Erythema and Eschar Score after (hrs) 72: 0: No erythema; 1: Very slight erythema (barely perceptible); 2: Well defined erythema; 3: Moderate to severe erythema; 4: Severe erythema (beef redness); key to Oedema Score after (hrs) 4 / Oedema Score after (hrs) 24 / Oedema Score after (hrs) 48 / Oedema Score after (hrs) 72: 0: No oedema; 1: Very slight oedema (barely perceptible); 2: Slight oedema (edges of area well defined by definite raising); 3: Moderate oedema (raised approximately 1mm); 4: Severe erythema (raised more than 1mm and extending beyond area of exposure); settings: for erythema or oedema in vivo: 1 mM on the skin of wildtype (wt) or Klk5^-/- mice; for erythema or oedema in vivo / toxicity: result in words; for Erythema and Eschar Score after (hrs) 4 / Oedema Score after (hrs) 4 / Erythema and Eschar Score after (hrs) 24 / Oedema Score after (hrs) 24 / Erythema and Eschar Score after (hrs) 48 / Oedema Score after (hrs) 48 / Erythema and Eschar Score after (hrs) 72 / Oedema Score after (hrs) 72: 1 mM on the skin; for Erythema and Eschar Score after (hrs) 4 / Oedema Score after (hrs) 4: 4 hrs; for Erythema and Eschar Score after (hrs) 24 / Oedema Score after (hrs) 24: 24 hrs; for Erythema and Eschar Score after (hrs) 48 / Oedema Score after (hrs) 48: 48 hrs; for Erythema and Eschar Score after (hrs) 72 / Oedema Score after (hrs) 72: 72 hrs; for toxicity: wild type and Klk5^-/- mice
From the text: Scoring was based on the following criteria (Table 2 and 3): Table 2 - Scoring criteria for erythema and eschar formation

Spink5^-/^-Klk5^-/- mice = test: application on the skin of Spink5^-/^-Klk5^-/- mice (desquamation, inflammatory cytokines); type: in vivo
KLK7 [8] = target: T1, KLK7; type: binding
KLK6 [9] = target: T3, KLK6; test: Western-like blotting with activity-based probe; type: binding; settings: enzyme reacted with probe 2 or 16 hours
Protocol: (§3) For Western-like blotting, the enzymes were reacted with Biotin-FFP for 2 or 16 hours, resolved on SDS-PAGE, then, the proteins were transferred on PVDF membranes. Membranes were blocked with 3% BSA in PBS for 40 min at room temperature, washed twice with PBS and incubated for 1 hour at room temperature with streptavidin-HRP polymer (1:2,000) and subsequently washed four times with PBS containing 0.05% Tween-20. Specific bands were identified with ECL.

trypsin [10] = test: Western-like blotting with activity-based probe; type: binding; settings: enzyme reacted with probe 2 or 16 hours
Protocol: as §3

[11] = gel zymography, casein, compound reacted with enzyme 2 hours at room temperature
[12] = enzyme kinetic study, result in words

T1 sequence (P49862 30-253): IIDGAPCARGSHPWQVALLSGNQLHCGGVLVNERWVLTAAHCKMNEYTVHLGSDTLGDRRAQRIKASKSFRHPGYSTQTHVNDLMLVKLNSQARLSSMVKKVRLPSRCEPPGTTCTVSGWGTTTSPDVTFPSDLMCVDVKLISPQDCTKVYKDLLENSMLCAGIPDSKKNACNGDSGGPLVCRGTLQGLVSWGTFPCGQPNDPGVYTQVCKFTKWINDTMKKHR

SMILES	inhibition of KLK7 activity (KLK7 [1]; [11])	erythema or oedema in vivo [7]	Erythema and Eschar Score after (hrs) 4 ([7]; Klk5^-/- mice)	Oedema Score after (hrs) 4 ([7]; Klk5^-/- mice)	Erythema and Eschar Score after (hrs) 24 ([7]; Klk5^-/- mice)	Oedema Score after (hrs) 24 ([7]; Klk5^-/- mice)	Erythema and Eschar Score after (hrs) 48 ([7]; Klk5^-/- mice)	Oedema Score after (hrs) 48 ([7]; Klk5^-/- mice)	Erythema and Eschar Score after (hrs) 72 ([7]; Klk5^-/- mice)	Oedema Score after (hrs) 72 ([7]; Klk5^-/- mice)	toxicity [7]	Erythema and Eschar Score after (hrs) 4 ([7]; wt mice)	Oedema Score after (hrs) 4 ([7]; wt mice)	Erythema and Eschar Score after (hrs) 24 ([7]; wt mice)	Oedema Score after (hrs) 24 ([7]; wt mice)	Erythema and Eschar Score after (hrs) 48 ([7]; wt mice)	Oedema Score after (hrs) 48 ([7]; wt mice)	Erythema and Eschar Score after (hrs) 72 ([7]; wt mice)	Oedema Score after (hrs) 72 ([7]; wt mice)	other results
CC(C)(C)OC(=O)NC(Cc1ccccc1)C(=O)NC(c1ccccc1)P(=O)(Oc1ccccc1)Oc1ccccc1 (stereo not drawn) [Boc-FbFP]	only Boc-FFP can inhibit the activity of KLK7																			
CC(C)(C)OC(=O)NC(Cc1ccccc1)C(=O)NC(CCc1ccccc1)P(=O)(Oc1ccccc1)Oc1ccccc1 (stereo not drawn) [Boc-FcFP]	only Boc-FFP can inhibit the activity of KLK7																			
CC(C)(C)OC(=O)NC(Cc1ccccc1)C(=O)NC(Cc1ccccc1)P(=O)(Oc1ccccc1)Oc1ccccc1 (stereo not drawn) [Boc-FFP, tert-butvl 1-(1-(diphenoxvphosphorvl)-2-phenylethylamino)-1-oxo-3-phenylpropan-2-ylcarbamate]		did not exhibit either erythema or oedema	0	0	0	0	0	0	0	0	lack toxicity	0	0	0	0	0	0	0	0	inhibition of KLK7 activity (KLK7 [1]): only Boc-FFP could effectively inhibit KLK7 activity; also recorded: can also inhibit the KLK7 activity; also recorded: can only inhibit the activity of KLK7; also recorded: Only KLK7 was inhibited; inhibition of KLK13 (KLK13): Only KLK7 was inhibited; inhibition of KLK6 (KLK6 [2]): Only KLK7 was inhibited; inhibition of elastase (ELA) (elastase (ELA)): Only KLK7 was inhibited; inhibition of trypsin (trypsin [3]): Only KLK7 was inhibited; ΔF/Δt (KLK6 [4]; KLK6 12 nM, Z-Phe-Arg-AMC 50 µM, change in fluorescence over 3 min, Boc-FFP 1.2 µM pre-incubated 2 hours, Aprotinin 500 nM, KLK6 alone 35.54): 37.96; inhibition of the activity of KLK6 (KLK6 [4]; [12]): did not inhibit; inhibition of the activity of trypsin (trypsin [5]; [12]): did not inhibit; ΔF/Δt (trypsin [5]; trypsin 12 nM, Z-Phe-Arg-AMC 50 µM, change in fluorescence over 3 min, Boc-FFP 1.2 µM pre-incubated 2 hours, Aprotinin 500 nM, trypsin alone 33.49): 33.26; IC50 (KLK7 [6]): 1910 nM; reduction of macroscopic desquamation (Spink5^-/^-Klk5^-/- mice; application on the skin of Spink5^-/^-Klk5^-/- mice, versus solvent control side): approximately 50%; expression of inflammatory cytokines (Spink5^-/^-Klk5^-/- mice; skin of Spink5^-/^-Klk5^-/- mice, RT-qPCR, versus solvent treatment): suppressed the expression of inflammatory cytokines
O=C(CCCCCNC(=O)CCCC[C@H]1SCC2NC(=O)NC21)NCCCCCC(=O)NC(Cc1ccccc1)C(=O)NC(Cc1ccccc1)P(=O)(Oc1ccccc1)Oc1ccccc1 (stereo partly drawn) [Biotin-FFP, diphenyl 1-(2-(6-(6-(5-((4R)-2-oxo-hexahydro-1H-thieno[3,4-d]imidazole-4-yl)pentanamido)hexanamido)hexanamido)-3-phenylpropanamido)-2-phenylethylphosphonate]		did not exhibit either erythema or oedema	0	0	0	0	0	0	0	0	lack toxicity	0	0	0	0	0	0	0	0	detection of active KLK7 (KLK7 [8]): only detected the active KLK7; labeling of KLK7, signal (KLK7 [8]): higher signal compared to Biotin-FbFP; also recorded: significant signal enhancement; detection of KLK6 (KLK6 [9]): does not react with KLK6 and trypsin; detection of trypsin (trypsin [10]): not the trypsin or the KLK6; also recorded: does not react with KLK6 and trypsin
